Assay results reported in US6455550B1, “N-alkanoylphenylalanine derivatives” (Hoffmann-La Roche Inc., priority 1997, dated 2002).

What follows are molecules tested against T1, cell-surface VLA-4 (α4β1 integrin) on Ramos cells binding to immobilized VCAM-1 (Homo sapiens, UniProt P05556+P13612) (assay: Ramos (VLA-4)/VCAM-1 Cell-Based Screening Assay (cell adhesion)). Details: Calcein-AM labeled Ramos cells, VCAM-1 coated plates, 45 min at room temperature; read-out: IC50 in Ramos Cell Based Assay.
T1 construct: Ramos cells bearing cell-surface VLA-4; endogenous in cells; host or cells: Ramos cells (VLA-4); VCAM-1 purified from CHO cell culture media
T1 sequence (P13612 34-1032): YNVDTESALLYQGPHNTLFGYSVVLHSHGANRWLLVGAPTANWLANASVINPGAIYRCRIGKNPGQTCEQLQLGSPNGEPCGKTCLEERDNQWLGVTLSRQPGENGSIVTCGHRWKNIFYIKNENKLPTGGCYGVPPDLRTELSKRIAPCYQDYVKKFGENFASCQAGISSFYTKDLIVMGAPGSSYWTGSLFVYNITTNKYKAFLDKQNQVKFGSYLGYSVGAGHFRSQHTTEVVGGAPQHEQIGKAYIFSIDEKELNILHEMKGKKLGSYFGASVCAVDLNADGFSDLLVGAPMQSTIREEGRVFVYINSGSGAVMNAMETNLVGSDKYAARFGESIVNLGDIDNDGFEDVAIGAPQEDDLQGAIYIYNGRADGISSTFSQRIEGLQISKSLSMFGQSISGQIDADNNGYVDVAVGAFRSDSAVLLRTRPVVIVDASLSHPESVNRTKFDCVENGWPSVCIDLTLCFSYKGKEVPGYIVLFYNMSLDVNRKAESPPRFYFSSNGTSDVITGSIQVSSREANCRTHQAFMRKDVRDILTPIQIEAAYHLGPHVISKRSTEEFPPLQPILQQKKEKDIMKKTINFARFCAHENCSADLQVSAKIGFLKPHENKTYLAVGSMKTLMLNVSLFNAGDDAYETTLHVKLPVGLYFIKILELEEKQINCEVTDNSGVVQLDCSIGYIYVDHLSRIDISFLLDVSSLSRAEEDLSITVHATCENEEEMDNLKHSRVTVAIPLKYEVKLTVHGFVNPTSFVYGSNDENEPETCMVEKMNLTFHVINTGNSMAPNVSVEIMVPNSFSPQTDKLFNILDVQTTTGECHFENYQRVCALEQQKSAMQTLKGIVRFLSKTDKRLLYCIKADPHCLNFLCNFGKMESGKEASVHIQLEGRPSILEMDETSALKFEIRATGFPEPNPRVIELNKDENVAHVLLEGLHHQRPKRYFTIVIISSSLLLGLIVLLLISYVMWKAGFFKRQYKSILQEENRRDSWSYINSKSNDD
T1 sequence (P05556 21-798): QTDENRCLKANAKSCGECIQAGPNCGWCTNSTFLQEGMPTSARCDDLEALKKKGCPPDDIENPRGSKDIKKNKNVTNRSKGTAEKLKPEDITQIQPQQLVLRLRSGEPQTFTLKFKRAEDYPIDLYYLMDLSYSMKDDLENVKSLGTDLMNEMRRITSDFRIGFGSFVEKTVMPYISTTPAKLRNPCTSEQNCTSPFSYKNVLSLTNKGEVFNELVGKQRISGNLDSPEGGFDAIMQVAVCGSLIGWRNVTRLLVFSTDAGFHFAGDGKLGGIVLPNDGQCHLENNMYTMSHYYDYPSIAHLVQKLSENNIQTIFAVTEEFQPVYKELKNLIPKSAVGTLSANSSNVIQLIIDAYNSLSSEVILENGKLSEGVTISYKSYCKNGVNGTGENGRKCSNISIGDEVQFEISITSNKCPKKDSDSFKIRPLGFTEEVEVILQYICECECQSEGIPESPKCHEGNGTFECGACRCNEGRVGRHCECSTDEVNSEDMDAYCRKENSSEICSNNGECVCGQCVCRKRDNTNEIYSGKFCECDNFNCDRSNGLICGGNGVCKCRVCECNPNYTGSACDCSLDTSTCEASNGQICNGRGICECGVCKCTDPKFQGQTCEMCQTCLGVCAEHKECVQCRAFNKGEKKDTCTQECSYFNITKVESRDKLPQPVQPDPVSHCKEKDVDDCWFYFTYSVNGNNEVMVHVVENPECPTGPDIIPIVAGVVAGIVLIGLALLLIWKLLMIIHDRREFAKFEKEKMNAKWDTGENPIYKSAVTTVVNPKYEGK
Source text: Calcein-AM was purchased from Molecular Probes Inc.
VLA-4 (α4β1 integrin) antagonist activity, defined as ability to compete with cell-surface VLA-4 for binding to immobilized VCAM-1, was quantitated using a Ramos-VCAM-1 cell adhesion assay. Ramos cells bearing cell-surface VLA-4, were labeled with a fluorescent dye (Calcein-AM) and allowed to bind VCAM-1 in the presence or absence of test compounds.
Initially, this entailed coating 96 well plates (Nunc Maxisorp) with recombinant human VCAM-1 (100 ng in 100 μl PBS), sealing each plate and allowing the plates to stand at 4° C for Å18 hr. The VCAM-coated plates were subsequently washed twice with 0.05% Tween-20 in PBS, and then blocked for 1hr (room temperature) with 200 μl of Blocking Buffer (1% BSA/0.02% thimerosal) to reduce non-specific binding. Following the incubation with Blocking Buffer, plates were inverted, blotted and the remaining buffer aspirated. Each plate was then washed with 300 μl PBS, inverted and the remaining PBS aspirated.
Test compounds were dissolved in 100% DMSO and then diluted 1:25 in VCAM Cell Adhesion Assay Buffer (4 mM CaCl2, 4 mM MgCl2 in 50 mM TRIS-HCl, pH 7.5) (final DMSO=4%). […] 100 μl/well of each dilution was added to the VCAM-coated plates, followed by 100 μl of Ramos cells (200,000 cells/well in 1% BSA/PBS). […] Plates were inverted to remove non-adherent cells, blotted and 300 μl/well PBS added. Plates were again inverted, blotted and the remaining buffer gently aspirated. 100 μl Lysis Buffer (0.1% SDS in 50 mM TRIS-HCl, pH 8.5) was added to each well and agitated for 2 min on a rotary shaking platform.

IC50	Structure (SMILES)
1.7 nM	CC(=O)NCCC1(C(=O)N[C@@H](Cc2ccc(N3C(=O)[C@@H](Cc4cccnc4)N(C(C)=O)C3c3ccccc3)cc2)C(=O)O)CCCC1 (single isomer, unassigned) [Example 299]
13.5 nM	COCCC1(C(=O)N[C@@H](Cc2ccc(NC(=O)c3c(Cl)cccc3Cl)cc2)C(=O)O)CCCC1 [Example 59]
184 nM	[N-]=[N+]=NCCCCC1(C(=O)N[C@@H](Cc2ccc(NC(=O)c3c(Cl)cccc3Cl)cc2)C(=O)O)CCCC1 [Example 261]
24 nM	COc1ccc(C[C@@H]2C(=O)N(c3ccc(C[C@H](NC(=O)C4(CCNC(C)=O)CCCC4)C(=O)O)cc3)C(c3ccc(Cl)cc3)N2C(C)=O)cc1 (single isomer, unassigned) [Example 286]
4.2 nM	CCCC(=O)N1C(c2ccccc2)N(c2ccc(C[C@H](NC(=O)C3(CCNC(C)=O)CCCC3)C(=O)O)cc2)C(=O)[C@H]1Cc1ccc(OC)cc1 (single isomer, unassigned) [Example 280]
13 nM	CCCC(=O)N1C(c2ccc(Cl)cc2)N(c2ccc(C[C@H](NC(=O)C3(CCNC(C)=O)CCCC3)C(=O)O)cc2)C(=O)[C@H]1C (single isomer, unassigned) [Example 351]
5 nM	CS(=O)(=O)CCCCC1(C(=O)N[C@@H](Cc2ccc(NC(=O)c3c(Cl)cccc3Cl)cc2)C(=O)O)CCCC1 [Example 263]
322 nM	O=C(NCCC1(C(=O)N[C@@H](Cc2ccc(NC(=O)c3c(Cl)cccc3Cl)cc2)C(=O)O)CCCC1)NCc1ccccc1 [Example 191]
13 nM	CC(=O)NCCC1(C(=O)N[C@@H](Cc2ccc(N3C(=O)[C@@H](C)N(C(C)=O)C3c3ccc(Cl)cc3)cc2)C(=O)O)CCCC1 (mixture of isomers) [Example 350]

Structure (SMILES)	IC50
CCCC(=O)N1C(c2ccc(Cl)cc2)N(c2ccc(C[C@H](NC(=O)C3(CCNC(C)=O)CCCC3)C(=O)O)cc2)C(=O)[C@H]1Cc1ccccc1 (single isomer, unassigned) [Example 322]	5 nM
CSCCCCC1(C(=O)N[C@@H](Cc2ccc(NC(=O)c3c(Cl)cccc3Cl)cc2)C(=O)O)CCCC1 [Example 260]	130 nM
CC(=O)NCCC1(C(=O)N[C@@H](Cc2ccc(N3C(=O)[C@@H](Cc4ccccc4)N(C(C)=O)C3c3ccccc3)cc2)C(=O)O)CCCC1 (single isomer, unassigned) [Example 311]	3 nM
CC(=O)NCCCC1(C(=O)N[C@@H](Cc2ccc(NC(=O)c3c(Cl)cccc3Cl)cc2)C(=O)O)CCCC1 [Example 276, N-[[1-(3-(Acetylamino)propyl]cyclopenyl]carbonyl]-4-[[(2,6-dichlorophenyl)carbonyl]amino]-L-phenylalanine]	22 nM
COc1ccc(C[C@@H]2C(=O)N(c3ccc(C[C@H](NC(=O)C4(CCNC(C)=O)CCCC4)C(=O)O)cc3)C(c3ccccc3)N2C(C)=O)cc1 (single isomer, unassigned) [Example 278]	2 nM

Same assay, conditions: Conc. 10 nM; Ramos cell adhesion to VCAM-1

inhibition at 0.01 µM	Structure (SMILES)
48%	COc1ccc(CC2C(=O)N(c3ccc(CC(NC(=O)C4(CCNC(C)=O)CCCC4)C(=O)O)cc3)C(c3ccc(Cl)cc3)N2C(=O)COc2ccccc2)cc1 (single isomer, unassigned) [Example 291]
70%	CC(=O)NCCC1(C(=O)NC(Cc2ccc(N3C(=O)C(Cc4cccnc4)N(C(C)=O)C3c3ccc(Cl)cc3)cc2)C(=O)O)CCCC1 (stereo not shown) [Example 303]
68%	CCCC(=O)N1C(Cc2ccccc2)C(=O)N(c2ccc(CC(NC(=O)C3(CCNC(C)=O)CCCC3)C(=O)O)cc2)C1c1ccccc1 (single isomer, unassigned) [Example 313]
17%	CC(=O)NCCC1(C(=O)NC(Cc2ccc(N3C(=O)C(Cc4ccccc4)N(C(=O)COc4ccccc4)C3c3ccccc3)cc2)C(=O)O)CCCC1 (single isomer, unassigned) [Example 317]
58%	CC(=O)NCCC1(C(=O)NC(Cc2ccc(N3C(=O)C(C)N(C(=O)COc4ccccc4)C3c3ccccc3)cc2)C(=O)O)CCCC1 (single isomer, unassigned) [Example 349]
32%	CCCC(=O)N1C(Cc2cccnc2)C(=O)N(c2ccc(CC(NC(=O)C3(CCNC(C)=O)CCCC3)C(=O)O)cc2)C1c1ccccc1 (stereo not shown) [Example 300]
68%	CC(=O)NCCC1(C(=O)NC(Cc2ccc(N3C(=O)C(Cc4ccccc4)N(C(C)=O)C3c3ccc(Cl)cc3)cc2)C(=O)O)CCCC1 (single isomer, unassigned) [Example 319]

Same assay, conditions: IC50 in Ramos Cell Based Assay (nM), Calcein-AM labeled Ramos cells, VCAM-1 coated plates, 45 min at room temperature

Structure (SMILES)	IC50
CSCCCCC1(C(=O)N[C@@H](Cc2ccc(NC(=O)c3c(Cl)cccc3Cl)cc2)C(=O)O)CCCC1 [Example 260]	94 nM
NC(=O)NCCC1(C(=O)N[C@@H](Cc2ccc(NC(=O)c3c(Cl)cccc3Cl)cc2)C(=O)O)CCCC1 [Example 188]	36 nM
N#CCCCCC1(C(=O)N[C@@H](Cc2ccc(NC(=O)c3c(Cl)cccc3Cl)cc2)C(=O)O)CCCC1 [Example 262]	39 nM
CC(C)(C)C(=O)NCCC1(C(=O)N[C@@H](Cc2ccc(NC(=O)c3c(Cl)cccc3Cl)cc2)C(=O)O)CCCC1 [Example 156, 4-[[(2,6-dichlorophenyl)carbonyl]amino]-N-[[1-[2-[[N-(1,1-dimethylethyl)carbonyl]amino]ethyl]cyclopentyl]carbonyl]-L-phenylalanine]	28 nM

The molecules below were run against T2, VLA-4 (α4β1 integrin) binding to immobilized VCAM-1 (Homo sapiens, UniProt P05556+P13612) (assay: VLA-4/VCAM-1 Screening Assay (solid-phase, dual antibody ELISA)). Details: not given.
T2 construct: followed by 10 μl of Ramos cell-derived VLA-4; endogenous in cells; host or cells: Ramos cells (VLA-4 preparation derived from the cells)
T2 sequence (P13612 34-1032): as the sequence (P13612 34-1032) above
T2 sequence (P05556 21-798): as the sequence (P05556 21-798) above
Procedure: VLA-4 antagonist activity, defined as ability to compete for binding to immobilized VCAM-1 was quantitated using a solid-phase, dual antibody ELISA. VLA-4 (α4β1 integrin) bound to VCAM-1 was detected by a complex of anti-integrin β1 antibody: HRP-conjugated anti-mouse IgG: chromogenic substrate (K-Blue). Initially, this entailed coating 96 well plates (Nunc Maxisorp) with recombinant human VCAM-1 (0.4 μg in 100 μl PBS), sealing each plate and then allowing the plates to stand at 4° C for Å18 hr. […] On the day of assay, all plates were washed twice with VCAM Assay Buffer (200 μl/well of 50 mM Tris-HCl, 100 mM NaCl, 1 mM MnCl2, 0.05% Tween 20; pH 7.4). Test compounds were dissolved in 100% DMSO and then diluted 1:20 in VCAM Assay Buffer supplemented with 1 mg/mL BSA (i.e., final DMSO=5%). […] 100 μl per well of each dilution was added to the VCAM-coated plates, followed by 10 μl of Ramos cell-derived VLA-4. These plates were sequentially mixed on a platform shaker for 1 min, incubated for 2 hr at 37° C. and then washed four times with 200 μl/well VCAM Assay Buffer. 100 μl of mouse anti-human integrin β1 antibody was added to each well (0.6 μg/mL in VCAM Assay Buffer+1 mg/mL BSA) and allowed to incubate for 1 hr at 37° C. At the conclusion of this incubation period, all plates were washed four times with VCAM Assay Buffer (200 μl/well). A corresponding second antibody, HRP-conjugated goat anti-mouse IgG (100 μl per well @1:800 dilution in VCAM Assay Buffer+1 mg/mL BSA), was then added to each well, followed by a 1 hr incubation at room temperature and concluded by three washes (200 μl/well) with VCAM Assay Buffer. Color development was initiated by addition of 100 μl K-Blue per well (15 min incubation, room temp) and terminated by addition of 100 μl Red Stop Buffer per well. […] Results were calculated as % inhibition of total binding (i.e., VLA-4+VCAM-1 in the absence of test compound).

inhibition at 0.01 µM	inhibition at 0.1 µM	Structure (SMILES)
63%	93%	Cc1ccc(C2(C(=O)N[C@@H](Cc3ccc(NC(=O)c4ccnc5ccccc45)cc3)C(=O)O)CCCC2)cc1 [Example 78]
73%	93%	CC(C)C(C(=O)N[C@@H](Cc1ccc(NC(=O)c2ccnc3ccccc23)cc1)C(=O)O)c1ccccc1 (stereo partly shown) [Example 76]

Same assay, conditions: Ramos cell-derived VLA-4, recombinant human VCAM-1 coated plates, 2 hr at 37° C.; read-out: IC50

IC50	Structure (SMILES)
18.3 nM	CC(=O)N[C@@H](Cc1ccc(O)cc1)C(=O)Nc1ccc(C[C@H](NC(=O)C2(C)CC2(Cl)Cl)C(=O)O)cc1 (stereo partly shown) [Example 101]
5 nM	COc1ccc(CC2(C(=O)N[C@@H](Cc3ccc(NC(=O)N4CCC(C#N)(c5ccccc5)CC4)cc3)C(=O)O)CCCC2)cc1 [Example 119]
2.1 nM	COc1ccc(C2(C(=O)N[C@@H](Cc3ccc(NC(=O)N4CCC(C#N)(c5ccccc5)CC4)cc3)C(=O)O)CCCCC2)cc1 [Example 122]
0.85 nM	COc1ccc(C2(C(=O)N[C@@H](Cc3ccc(N4C(=O)[C@H](C)N(C)C4=O)cc3)C(=O)O)CCCCC2)cc1 [Example 143]
9.2 nM	Cn1nc(C(C)(C)C)cc1C(=O)NCCC1(C(=O)N[C@@H](Cc2ccc(NC(=O)c3c(Cl)cccc3Cl)cc2)C(=O)O)CCCC1 [Example 167]
3 nM	N#CC1(C(=O)N[C@@H](Cc2ccc(NC(=O)CCN3CCCCC3)cc2)C(=O)O)CCCC1 [Example 92]
0.35 nM	N#CC1(c2ccccc2)CCN(C(=O)Nc2ccc(C[C@H](NC(=O)C34CC5CC(CC(C5)C3)C4)C(=O)O)cc2)CC1 [Example 118]
1.5 nM	CCCCC(C)(CC)C(=O)NC(Cc1ccc(NC(=O)CCN2CCCCC2)cc1)C(=O)O (stereo not shown) [Example 87]
9 nM	Cc1ccc(C2(C(=O)N[C@@H](Cc3ccc(NC(=O)c4ccnc5ccccc45)cc3)C(=O)O)CCCC2)cc1 [Example 78]
4.6 nM	CC(C)C(C(=O)N[C@@H](Cc1ccc(NC(=O)c2ccnc3ccccc23)cc1)C(=O)O)c1ccccc1 (stereo partly shown) [Example 76]

Structure (SMILES)	IC50
CC1(C(=O)N[C@@H](Cc2ccc(NC(=O)c3ccnc4ccccc34)cc2)C(=O)O)CC1(Cl)Cl (stereo partly drawn) [Example 64, N-[(2,2-Dichloro-1-methylcyclopropyl)carbonyl]-4-[(4-quinolinylcarbonyl)amino]-L-phenylalanine]	3 nM
